Test system: PC-3 cells
Assay: MTT cell viability assay, PC-3 cells in 10% FBS medium
Assay type: cell-based, human
Conditions: Homo sapiens, PC-3, 48 h, RPMI 1640 with 10% FBS, means ± S.D. (n = 6)
Experimental: PC-3 (p53−/−) human androgen-nonresponsive prostate cancer cells were purchased from the American Type Tissue Collection (Manassas, Va.). Cells were cultured in RPMI 1640 medium (Gibco, Grand Island, N.Y.) supplemented with 10% fetal bovine serum (FBS; Gibco) at 37° C. in a humidified incubator containing 5% CO2.
Effect of the test agent on cell viability was assessed by the MTT {[3-(4,5-dimethylthiazol-2-yl)-2,5-diphenyl-2H-tetrazolium bromide]} assay in 96-well, flat-bottomed plates, in which 8,000 PC-3 or DU-145 cells/well were seeded. Cells were exposed to the test agent at the indicated concentrations, in six replicates, in 10% FBS-supplemented-RPMI-1640 medium at 37° C. in 5% CO2 for 48 hr. The medium was removed and replaced by 150 μL of 0.5 mg/mL of MTT in RPMI-1640 medium, and cells were incubated in the CO2 incubator at 37° C. for 2 h. Supernatants were removed from the wells, and the reduced MTT dye was solubilized with 200 μL/well DMSO. Absorbance was determined on a plate reader at 570 nm.
All compounds were evaluated for their ability to induce apoptotic death in human androgen-independent PC-3 prostate cancer in RPMI 1640 medium containing 10% fetal bovine serum (FBS). For representative compounds tested in DU-145 and LNCaP prostate cancer cells, the IC50 values for inhibiting cell proliferation were similar in these three cell lines irrespective of differences in androgen sensitivity, PTEN mutation, the functional status of p53 and Rb, and other biomarkers.

IC50 | SMILES
60 ± 8 µM | COc1cc2nc(N3CCN(C(=O)c4ccc(Cl)cc4)CC3)nc(N)c2cc1OC [Compound 1, [4-(4-Amino-6,7-dimethoxy-quinazolin-2-yl)-piperazin-1-yl]-(4-chloro-phenyl)-methanone]
68 ± 6 µM | COc1cc2nc(N3CCN(C(=O)c4ccc(C#N)cc4)CC3)nc(N)c2cc1OC [Compound 2, 4-[4-(4-Amino-6,7-dimethoxy-quinazolin-2-yl)-piperazine-1-carbonyl]-benzonitrile]
63 ± 6 µM | COc1cc2nc(N3CCN(C(=O)OCc4ccccc4)CC3)nc(N)c2cc1OC [Compound 3, 4-(4-Amino-6,7-dimethoxy-quinazolin-2-yl)-piperazine-1-carboxylic acid benzyl ester]
82 ± 5 µM | COc1cc2nc(N3CCN(C(=O)c4cccc(C#N)c4)CC3)nc(N)c2cc1OC [Compound 4, 3-[4-(4-Amino-6,7-dimethoxy-quinazolin-2-yl)-piperazine-1-carbonyl]-benzo-nitrile]
75 ± 11 µM | COc1cc2nc(N3CCN(C(=O)c4ccc([N+](=O)[O-])cc4)CC3)nc(N)c2cc1OC [Compound 5, [4-(4-Amino-6,7-dimethoxy-quinazolin-2-yl)-piperazin-1-yl]-(4-nitro-phenyl)-methanone]
71 ± 8 µM | COc1ccc(C(=O)N2CCN(c3nc(N)c4cc(OC)c(OC)cc4n3)CC2)cc1OC [Compound 6, [4-(4-Amino-6,7-dimethoxy-quinazolin-2-yl)-piperazin-1-yl]-(3,4-dimethoxy-phenyl)-methanone]
59 ± 4 µM | COc1cc2nc(N3CCN(C(=O)c4cccc5ccccc45)CC3)nc(N)c2cc1OC [Compound 7, [4-(4-Amino-6,7-dimethoxy-quinazolin-2-yl)-piperazin-1-yl]-naphthalen-1-yl-methanone]
> 100 µM | COc1cc2nc(N3CCN(C(=O)c4ccc(N)cc4)CC3)nc(N)c2cc1OC [Compound 8, [4-(4-Amino-6,7-dimethoxy-quinazolin-2-yl)-piperazin-1-yl]-(4-amino-phenyl)-methanone]
47 ± 6 µM | COc1cc2nc(N3CCN(C(=O)c4ccc(C(C)(C)C)cc4)CC3)nc(N)c2cc1OC [Compound 9, [4-(4-Amino-6,7-dimethoxy-quinazolin-2-yl)-piperazin-1-yl]-(4-tert-butyl-phenyl)-methanone]
> 100 µM | COc1cc2nc(N3CCN(C(=O)c4ccc(C(F)(F)F)cc4)CC3)nc(N)c2cc1OC [Compound 10, [4-(4-Amino-6,7-dimethoxy-quinazolin-2-yl)-piperazin-1-yl]-(4-trifluoromethyl-phenyl)-methanone]
23 ± 3 µM | COc1cc2nc(N3CCN(S(=O)(=O)c4ccc(Cl)cc4)CC3)nc(N)c2cc1OC [Compound 11, 2-[4-(4-Chloro-benzonesulfonyl)-piperazin-1-yl]-6,7-dimethoxy-quinazolin-4-yl-amine]
20 ± 2 µM | COc1cc2nc(N3CCN(S(=O)(=O)c4ccc(Br)cc4)CC3)nc(N)c2cc1OC [Compound 12, 2-[4-(4-Bromo-benzenesulfonyl)-piperazin-1-yl]-6,7-dimethoxy-quinazolin-4-yl-amine]
15 ± 2 µM | COc1cc2nc(N3CCN(S(=O)(=O)c4ccc(I)cc4)CC3)nc(N)c2cc1OC [Compound 13, 2-[4-(4-Iodo-benzenesulfonyl)-piperazin-1-yl]-6,7-dimethoxy-quinazolin-4-yl-amine]
25 ± 3 µM | COc1cc2nc(N3CCN(S(=O)(=O)c4ccc(Cl)s4)CC3)nc(N)c2cc1OC [Compound 14, 2-[4-(5-Chloro-thiophene-2-sulfonyl)-piperazin-1-yl]-6,7-dimethoxy-quinazolin-4-ylamine]
35 ± 4 µM | COc1cc2nc(N3CCN(S(=O)(=O)c4ccccc4[N+](=O)[O-])CC3)nc(N)c2cc1OC [Compound 15, 6,7-Dimethoxy-2-[4-(2-nitro-benzenesulfonyl)-piperazin-1-yl]-quinazolin-4-yl-amine]
32 ± 5 µM | COc1cc2nc(N3CCN(S(=O)(=O)c4cccc([N+](=O)[O-])c4)CC3)nc(N)c2cc1OC [Compound 16, 6,7-Dimethoxy-2-[4-(3-nitro-benzenesulfonyl)-piperazin-1-yl]-quinazolin-4-yl-amine]

IC50 | SMILES
36 ± 3 µM | COc1cc2nc(N3CCN(S(=O)(=O)c4ccc([N+](=O)[O-])cc4)CC3)nc(N)c2cc1OC [Compound 17, 6,7-Dimethoxy-2-[4-(4-nitro-benzenesulfonyl)-piperazin-1-yl]-quinazolin-4-yl-amine]
30 ± 2 µM | COc1cc2nc(N3CCN(S(=O)(=O)c4ccc(C)cc4)CC3)nc(N)c2cc1OC [Compound 18, 6,7-Dimethoxy-2-[4-(toluene-4-sulfonyl)-piperazin-1-yl]-quinazolin-4-ylamine]
27 ± 3 µM | COc1cc2nc(N3CCN(S(=O)(=O)c4ccc(C(F)(F)F)cc4)CC3)nc(N)c2cc1OC [Compound 19, 6,7-Dimethoxy-2-[4-(4-trifluoromethyl-benzenesulfonyl)-piperazin-1-yl]-quinazolin-4-yl-amine]
39 ± 4 µM | COc1ccc(S(=O)(=O)N2CCN(c3nc(N)c4cc(OC)c(OC)cc4n3)CC2)cc1 [Compound 20, 6,7-Dimethoxy-2-[4-(4-methoxy-benzenesulfonyl)-piperazin-1-yl]-quinazolin-4-yl-amine]
25 ± 2 µM | COc1cc2nc(N3CCN(S(=O)(=O)c4ccc(OC(F)(F)F)cc4)CC3)nc(N)c2cc1OC [Compound 21, 6,7-Dimethoxy-2-[4-(4-trifluoromethoxy-benzenesulfonyl)-piperazin-1-yl]-quinazolin-4-yl-amine]
17 ± 3 µM | COc1cc2nc(N3CCN(S(=O)(=O)c4ccc(S(C)(=O)=O)cc4)CC3)nc(N)c2cc1OC [Compound 22, 2-[4-(4-Methanesulfonyl-benzenesulfonyl)-piperazin-1-yl]-6,7-dimethoxy-quinazolin-4-ylamine]
4 to 5 µM | COc1cc2nc(N3CCN(S(=O)(=O)c4ccc(C(C)(C)C)cc4)CC3)nc(N)c2cc1OC [Compound 23, 2-[4-(4-tert-Butyl-benzenesulfonyl)-piperazin-1-yl]-6,7-dimethoxy-quinazolin-4-ylamine]
53 ± 4 µM | COc1cc2nc(N3CCN(S(=O)(=O)c4cccc(C(=O)O)c4)CC3)nc(N)c2cc1OC [Compound 24, 3-[4-(4-Amino-6,7-dimethoxy-quinazolin-2-yl)-piperazine-1-sulfonyl]-benzoic acid]
60 ± 7 µM | COc1cc2nc(N3CCN(S(=O)(=O)c4cc(Cl)ccc4Cl)CC3)nc(N)c2cc1OC [Compound 26, 2-[4-(2,5-Dichloro-benzenesulfonyl)-piperazin-1-yl]-6,7-dimethoxy-quinazolin-4-ylamine]
67 ± 5 µM | COc1cc2nc(N3CCN(S(=O)(=O)c4ccc(N)cc4N)CC3)nc(N)c2cc1OC [Compound 27, 4-[4-(4-Amino-6,7-dimethoxy-quinazolin-2-yl)-piperazine-1-sulfonyl]-benzene-1,3-diamine]
56 ± 4 µM | COc1cc2nc(N3CCN(S(=O)(=O)c4cc(C(=O)O)c(Cl)cc4F)CC3)nc(N)c2cc1OC [Compound 28, 5-[4-(4-Amino-6,7-dimethoxy-quinazolin-2-yl)-piperazine-1-sulfonyl]-2-chloro-4-fluoro-benzoic acid]
52 ± 6 µM | COc1cc2nc(N3CCN(S(=O)(=O)c4cc(C(=O)O)c(Cl)cc4Cl)CC3)nc(N)c2cc1OC [Compound 29, 5-[4-(4-Amino-6,7-dimethoxy-quinazolin-2-yl)-piperazine-1-sulfonyl]-2,4-dichloro-benzoic acid]
14 ± 2 µM | COc1cc2nc(N3CCN(S(=O)(=O)c4cccc5ccccc45)CC3)nc(N)c2cc1OC [Compound 30, 6,7-Dimethoxy-2-[4-(naphthalene-1-sulfonyl)-piperazin-1-yl]-quinazolin-4-yl-amine]
15 ± 2 µM | COc1cc2nc(N3CCN(S(=O)(=O)c4ccc5ccccc5c4)CC3)nc(N)c2cc1OC [Compound 31, 6,7-Dimethoxy-2-[4-(naphthalene-2-sulfonyl)-piperazin-1-yl]-quinazolin-4-yl-amino]
29 ± 4 µM | COc1cc2nc(N3CCN(S(=O)(=O)c4cccc5c(N(C)C)cccc45)CC3)nc(N)c2cc1OC [Compound 32, 2-[4-(5-Dimethylamino-naphthalene-1-sulfonyl)-piperazin-1-yl]-6,7-dimethoxy-quinazolin-4-ylamine]
3.4 ± 0.4 µM | COc1cc2nc(N3CCN(S(=O)(=O)c4ccc(-c5ccc(C)cc5)cc4)CC3)nc(N)c2cc1OC [Compound 36, 6,7-Dimethoxy-2-[4-(4′-methyl-biphenyl-4-sulfonyl)-piperazin-1-yl]-quinazolin-4-yl-amine]

SMILES | IC50
COc1cc2nc(N3CCN(S(=O)(=O)c4ccc(-c5cc6ccccc6c6ccccc56)cc4)CC3)nc(N)c2cc1OC [Compound 35, 6,7-Dimethoxy-2-[4-(4-phenanthren-9-yl-benzenesulfonyl)-piperazin-1-yl]-quinazolin-4-ylamine] | 4 to 5 µM

Same assay, conditions: RPMI 1640 with 10% FBS, 48 h, means ± S.D. (n = 6)

SMILES | IC50
COc1cc2nc(N3CCN(S(=O)(=O)c4ccc(C(C)(C)C)cc4)CC3)nc(N)c2cc1OC [Compound 23, 2-[4-(4-tert-Butyl-benzenesulfonyl)-piperazin-1-yl]-6,7-dimethoxy-quinazolin-4-ylamine] | 4.1 ± 0.7 µM
COc1cc2nc(N3CCN(S(=O)(=O)c4c(C(C)C)cc(C(C)C)cc4C(C)C)CC3)nc(N)c2cc1OC [Compound 34, 6,7-Dimethoxy-2-[4-(2,4,6-triisopropyl-benzonesulfonyl)-piperazin-1-yl]-quinazolin-4-yl-amine] | 24 ± 3 µM
COc1cc2nc(N3CCN(S(=O)(=O)c4ccc(-c5cc6ccccc6c6ccccc56)cc4)CC3)nc(N)c2cc1OC [Compound 35, 6,7-Dimethoxy-2-[4-(4-phenanthren-9-yl-benzenesulfonyl)-piperazin-1-yl]-quinazolin-4-ylamine] | 5.2 ± 0.9 µM

Reference: patent US8377948B2, “Antitumor agents and methods of their use” (The Ohio State University Research Foundation, priority 2004, dated 2013)
